Assay results published in patent US9723834B2, “Composition containing a pyripyropene insecticide and a base” (BASF SE, priority 2010, dated 2017).

Key:
[1] = test system: larvae of Helicoverpa zea; settings: Applied and Environmental Microbiology (1995), 61(12), 4429-35; cited from earlier work
[2] = test system: Plutella xylostella L larvae; settings: WO 2004/060065; cited from earlier work
[3] = test system: Tenebrio molitor L; settings: WO 2004/060065; cited from earlier work
[4] = Storage stability of emulsion concentrates at 65° C. (chemical assay before and after storage); type: physicochemical; settings: emulsion concentrate with addition of Stabilizer A, storage at 65° C. up to 2 weeks
Procedure: The present invention further relates to a use of the base for increasing the stability of the pesticide of formulae I or II. The stability of the pesticide may be analyzed storage for 14 days at 65° C. An increase of the stability of the pesticide may be identified by analyzing the chemical recovery after said storage.
Finally, all samples of the emulsion concentrates were stored at 65° C. up to 2 weeks, and chemical assay was determined before and after storage. The chemical stability results as well as initial formulation pH (measured at 1% formulation dilution in water at room temperature) were listed in Table 1.

Structure (SMILES)	insecticidal activity against larvae of Helicoverpa zea [1]	insecticidal activity against Plutella xylostella L larvae [2]	insecticidal activity against Tenebrio molitor L [3]	chemical stability of Insecticide A [4]
CC(=O)OC[C@@]1(C)[C@@H]2C[C@H](OC(C)=O)[C@@]3(C)Oc4cc(-c5cccnc5)oc(=O)c4[C@H](O)[C@@H]3[C@@]2(C)CC[C@@H]1OC(C)=O [Insecticide B, Pyripyropene A]	has insecticidal activity	has insecticidal activity	has insecticidal activity	–
C[C@]1(COC(=O)C2CC2)[C@@H]2C[C@H](O)[C@@]3(C)Oc4cc(-c5cccnc5)oc(=O)c4[C@H](O)[C@@H]3[C@@]2(C)CC[C@@H]1OC(=O)C1CC1 [Insecticide A]	–	–	–	dramatically improved
